# Experimental data from ChEMBL document CHEMBL5614409, “Discovery of potent HIV-1 NNRTIs by CuAAC click-chemistry-based miniaturized synthesis, rapid screening and structure optimization” (Eur J Med Chem, 2024).
# Test system: Human immunodeficiency virus 1
# Assay: Antiviral activity against HIV1 IIIB infected in MT4 cells assessed as reduction in virus induced cytopathic effect incubated for 5 days by MTT method
# Format: functional, organism-based
# Settings: Human immunodeficiency virus 1, IIIB, MT4, 120 h
row,SMILES,EC50 [nM]
1,CCNC(=O)Cn1cc(CN2CCC(Nc3nccc(Oc4c(C)cc(/C=C/C#N)cc4C)n3)CC2)nn1,1
2,Cc1cc(/C=C/C#N)cc(C)c1Oc1nc(NC2CCN(Cc3cn(CC(=O)NC4CCOCC4)nn3)CC2)nc2c1COC2,11
3,CCNC(=O)Cn1cc(CN2CCC(Nc3nc(Oc4c(C)cc(/C=C/C#N)cc4C)c4ccccc4n3)CC2)nn1,5
4,Cc1cc(/C=C/C#N)cc(C)c1Oc1nc(NC2CCN(Cc3cn(CC(=O)NC4CC4)nn3)CC2)nc2ccccc12,5
5,CNC(=O)Cn1cc(CN2CCC(Nc3nc(Oc4c(C)cc(/C=C/C#N)cc4C)c4ccccc4n3)CC2)nn1,5
6,CNC(=O)Cn1cc(CN2CCC(Nc3nc4c(c(Oc5c(C)cc(/C=C/C#N)cc5C)n3)COC4)CC2)nn1,4
7,Cc1cc(/C=C/C#N)cc(C)c1Oc1nc(NC2CCN(Cc3cn(CC(N)=O)nn3)CC2)nc2c1COC2,13

# Test system: not listed separately
# Assay: Cytotoxicity against human MT4 cells assessed as reduction in cell viability incubated for 5 days by MTT method
# Format: toxicity, cell-based
# Settings: time 5 day
row,SMILES,CC50 at 120 h [nM]
1,CCNC(=O)Cn1cc(CN2CCC(Nc3nccc(Oc4c(C)cc(/C=C/C#N)cc4C)n3)CC2)nn1,20700
2,Cc1cc(/C=C/C#N)cc(C)c1Oc1nc(NC2CCN(Cc3cn(CC(=O)NC4CCOCC4)nn3)CC2)nc2c1COC2,112000
3,CCNC(=O)Cn1cc(CN2CCC(Nc3nc(Oc4c(C)cc(/C=C/C#N)cc4C)c4ccccc4n3)CC2)nn1,23700
4,Cc1cc(/C=C/C#N)cc(C)c1Oc1nc(NC2CCN(Cc3cn(CC(=O)NC4CC4)nn3)CC2)nc2ccccc12,22400
5,CNC(=O)Cn1cc(CN2CCC(Nc3nc(Oc4c(C)cc(/C=C/C#N)cc4C)c4ccccc4n3)CC2)nn1,18100
6,CNC(=O)Cn1cc(CN2CCC(Nc3nc4c(c(Oc5c(C)cc(/C=C/C#N)cc5C)n3)COC4)CC2)nn1,119000
7,Cc1cc(/C=C/C#N)cc(C)c1Oc1nc(NC2CCN(Cc3cn(CC(N)=O)nn3)CC2)nc2c1COC2,125000

# Test system: not listed separately
# Assay: Selectivity index, ratio of CC50 for human MT4 cells to EC50 for antiviral activity against HIV1 IIIB infected in MT4 cells
# Format: toxicity, cell-based
# Settings: read-out: Ratio CC50/EC50
row,SMILES,selectivity ratio
1,CCNC(=O)Cn1cc(CN2CCC(Nc3nccc(Oc4c(C)cc(/C=C/C#N)cc4C)n3)CC2)nn1,14800
2,Cc1cc(/C=C/C#N)cc(C)c1Oc1nc(NC2CCN(Cc3cn(CC(=O)NC4CCOCC4)nn3)CC2)nc2c1COC2,10400
3,CCNC(=O)Cn1cc(CN2CCC(Nc3nc(Oc4c(C)cc(/C=C/C#N)cc4C)c4ccccc4n3)CC2)nn1,4230
4,Cc1cc(/C=C/C#N)cc(C)c1Oc1nc(NC2CCN(Cc3cn(CC(=O)NC4CC4)nn3)CC2)nc2ccccc12,4150
5,CNC(=O)Cn1cc(CN2CCC(Nc3nc(Oc4c(C)cc(/C=C/C#N)cc4C)c4ccccc4n3)CC2)nn1,4020
6,CNC(=O)Cn1cc(CN2CCC(Nc3nc4c(c(Oc5c(C)cc(/C=C/C#N)cc5C)n3)COC4)CC2)nn1,31300
7,Cc1cc(/C=C/C#N)cc(C)c1Oc1nc(NC2CCN(Cc3cn(CC(N)=O)nn3)CC2)nc2c1COC2,9570

# Test system: Human immunodeficiency virus 1
# Assay: Antiviral activity against HIV1 IIIB harboring L100I mutant infected in MT4 cells assessed as reduction in virus induced cytopathic effect incubated for 5 days by MTT method
# Format: functional, organism-based
# Settings: Human immunodeficiency virus 1, IIIB, MT4, 120 h
row,SMILES,EC50 [nM]
1,CCNC(=O)Cn1cc(CN2CCC(Nc3nccc(Oc4c(C)cc(/C=C/C#N)cc4C)n3)CC2)nn1,7
2,Cc1cc(/C=C/C#N)cc(C)c1Oc1nc(NC2CCN(Cc3cn(CC(=O)NC4CCOCC4)nn3)CC2)nc2c1COC2,21
3,CCNC(=O)Cn1cc(CN2CCC(Nc3nc(Oc4c(C)cc(/C=C/C#N)cc4C)c4ccccc4n3)CC2)nn1,18
4,Cc1cc(/C=C/C#N)cc(C)c1Oc1nc(NC2CCN(Cc3cn(CC(=O)NC4CC4)nn3)CC2)nc2ccccc12,19
5,CNC(=O)Cn1cc(CN2CCC(Nc3nc(Oc4c(C)cc(/C=C/C#N)cc4C)c4ccccc4n3)CC2)nn1,8
6,CNC(=O)Cn1cc(CN2CCC(Nc3nc4c(c(Oc5c(C)cc(/C=C/C#N)cc5C)n3)COC4)CC2)nn1,17
7,Cc1cc(/C=C/C#N)cc(C)c1Oc1nc(NC2CCN(Cc3cn(CC(N)=O)nn3)CC2)nc2c1COC2,37

# Test system: Human immunodeficiency virus 1
# Assay: Antiviral activity against HIV1 IIIB harboring K103 N mutant infected in MT4 cells assessed as reduction in virus induced cytopathic effect incubated for 5 days by MTT method
# Format: functional, organism-based
# Settings: Human immunodeficiency virus 1, IIIB, MT4, 120 h
row,SMILES,EC50 [nM]
1,CCNC(=O)Cn1cc(CN2CCC(Nc3nccc(Oc4c(C)cc(/C=C/C#N)cc4C)n3)CC2)nn1,2
2,Cc1cc(/C=C/C#N)cc(C)c1Oc1nc(NC2CCN(Cc3cn(CC(=O)NC4CCOCC4)nn3)CC2)nc2c1COC2,16
3,CCNC(=O)Cn1cc(CN2CCC(Nc3nc(Oc4c(C)cc(/C=C/C#N)cc4C)c4ccccc4n3)CC2)nn1,10
4,Cc1cc(/C=C/C#N)cc(C)c1Oc1nc(NC2CCN(Cc3cn(CC(=O)NC4CC4)nn3)CC2)nc2ccccc12,9
5,CNC(=O)Cn1cc(CN2CCC(Nc3nc4c(c(Oc5c(C)cc(/C=C/C#N)cc5C)n3)COC4)CC2)nn1,8
6,Cc1cc(/C=C/C#N)cc(C)c1Oc1nc(NC2CCN(Cc3cn(CC(N)=O)nn3)CC2)nc2c1COC2,32

# Test system: Human immunodeficiency virus 1
# Assay: Antiviral activity against HIV1 IIIB harboring Y181C mutant infected in MT4 cells assessed as reduction in virus induced cytopathic effect incubated for 5 days by MTT method
# Format: functional, organism-based
# Settings: Human immunodeficiency virus 1, IIIB, MT4, 120 h
row,SMILES,EC50 [nM]
1,CCNC(=O)Cn1cc(CN2CCC(Nc3nccc(Oc4c(C)cc(/C=C/C#N)cc4C)n3)CC2)nn1,7
2,Cc1cc(/C=C/C#N)cc(C)c1Oc1nc(NC2CCN(Cc3cn(CC(=O)NC4CCOCC4)nn3)CC2)nc2c1COC2,38
3,CCNC(=O)Cn1cc(CN2CCC(Nc3nc(Oc4c(C)cc(/C=C/C#N)cc4C)c4ccccc4n3)CC2)nn1,33
4,Cc1cc(/C=C/C#N)cc(C)c1Oc1nc(NC2CCN(Cc3cn(CC(=O)NC4CC4)nn3)CC2)nc2ccccc12,41
5,CNC(=O)Cn1cc(CN2CCC(Nc3nc(Oc4c(C)cc(/C=C/C#N)cc4C)c4ccccc4n3)CC2)nn1,18
6,CNC(=O)Cn1cc(CN2CCC(Nc3nc4c(c(Oc5c(C)cc(/C=C/C#N)cc5C)n3)COC4)CC2)nn1,28
7,Cc1cc(/C=C/C#N)cc(C)c1Oc1nc(NC2CCN(Cc3cn(CC(N)=O)nn3)CC2)nc2c1COC2,57

# Test system: Human immunodeficiency virus 1
# Assay: Antiviral activity against HIV1 IIIB harboring Y188L mutant infected in MT4 cells assessed as reduction in virus induced cytopathic effect incubated for 5 days by MTT method
# Format: functional, organism-based
# Settings: Human immunodeficiency virus 1, IIIB, MT4, 120 h
row,SMILES,EC50 [nM]
1,CCNC(=O)Cn1cc(CN2CCC(Nc3nccc(Oc4c(C)cc(/C=C/C#N)cc4C)n3)CC2)nn1,406
2,Cc1cc(/C=C/C#N)cc(C)c1Oc1nc(NC2CCN(Cc3cn(CC(=O)NC4CCOCC4)nn3)CC2)nc2c1COC2,159
3,CCNC(=O)Cn1cc(CN2CCC(Nc3nc(Oc4c(C)cc(/C=C/C#N)cc4C)c4ccccc4n3)CC2)nn1,60
4,Cc1cc(/C=C/C#N)cc(C)c1Oc1nc(NC2CCN(Cc3cn(CC(=O)NC4CC4)nn3)CC2)nc2ccccc12,58
5,CNC(=O)Cn1cc(CN2CCC(Nc3nc(Oc4c(C)cc(/C=C/C#N)cc4C)c4ccccc4n3)CC2)nn1,49
6,CNC(=O)Cn1cc(CN2CCC(Nc3nc4c(c(Oc5c(C)cc(/C=C/C#N)cc5C)n3)COC4)CC2)nn1,179
7,Cc1cc(/C=C/C#N)cc(C)c1Oc1nc(NC2CCN(Cc3cn(CC(N)=O)nn3)CC2)nc2c1COC2,419

# Test system: Human immunodeficiency virus 1
# Assay: Antiviral activity against HIV1 IIIB harboring E138K mutant infected in MT4 cells assessed as reduction in virus induced cytopathic effect incubated for 5 days by MTT method
# Format: functional, organism-based
# Settings: Human immunodeficiency virus 1, IIIB, MT4, 120 h
row,SMILES,EC50 [nM]
1,CCNC(=O)Cn1cc(CN2CCC(Nc3nccc(Oc4c(C)cc(/C=C/C#N)cc4C)n3)CC2)nn1,11
2,Cc1cc(/C=C/C#N)cc(C)c1Oc1nc(NC2CCN(Cc3cn(CC(=O)NC4CCOCC4)nn3)CC2)nc2c1COC2,25
3,CCNC(=O)Cn1cc(CN2CCC(Nc3nc(Oc4c(C)cc(/C=C/C#N)cc4C)c4ccccc4n3)CC2)nn1,36
4,Cc1cc(/C=C/C#N)cc(C)c1Oc1nc(NC2CCN(Cc3cn(CC(=O)NC4CC4)nn3)CC2)nc2ccccc12,29
5,CNC(=O)Cn1cc(CN2CCC(Nc3nc(Oc4c(C)cc(/C=C/C#N)cc4C)c4ccccc4n3)CC2)nn1,13
6,CNC(=O)Cn1cc(CN2CCC(Nc3nc4c(c(Oc5c(C)cc(/C=C/C#N)cc5C)n3)COC4)CC2)nn1,17
7,Cc1cc(/C=C/C#N)cc(C)c1Oc1nc(NC2CCN(Cc3cn(CC(N)=O)nn3)CC2)nc2c1COC2,31

# Test system: Human immunodeficiency virus 1
# Assay: Antiviral activity against HIV1 IIIB harboring F227L/V106A double mutant infected in MT4 cells assessed as reduction in virus induced cytopathic effect incubated for 5 days by MTT method
# Format: functional, organism-based
# Settings: Human immunodeficiency virus 1, IIIB, MT4, 120 h
row,SMILES,EC50 [nM]
1,CCNC(=O)Cn1cc(CN2CCC(Nc3nccc(Oc4c(C)cc(/C=C/C#N)cc4C)n3)CC2)nn1,164
2,Cc1cc(/C=C/C#N)cc(C)c1Oc1nc(NC2CCN(Cc3cn(CC(=O)NC4CCOCC4)nn3)CC2)nc2c1COC2,687
3,CCNC(=O)Cn1cc(CN2CCC(Nc3nc(Oc4c(C)cc(/C=C/C#N)cc4C)c4ccccc4n3)CC2)nn1,927
4,Cc1cc(/C=C/C#N)cc(C)c1Oc1nc(NC2CCN(Cc3cn(CC(=O)NC4CC4)nn3)CC2)nc2ccccc12,546
5,CNC(=O)Cn1cc(CN2CCC(Nc3nc(Oc4c(C)cc(/C=C/C#N)cc4C)c4ccccc4n3)CC2)nn1,257
6,CNC(=O)Cn1cc(CN2CCC(Nc3nc4c(c(Oc5c(C)cc(/C=C/C#N)cc5C)n3)COC4)CC2)nn1,945
7,Cc1cc(/C=C/C#N)cc(C)c1Oc1nc(NC2CCN(Cc3cn(CC(N)=O)nn3)CC2)nc2c1COC2,268

# Test system: Human immunodeficiency virus 1
# Assay: Antiviral activity against HIV1 IIIB harboring RES056 mutant infected in MT4 cells assessed as reduction in virus induced cytopathic effect incubated for 5 days by MTT method
# Format: functional, organism-based
# Settings: Human immunodeficiency virus 1, IIIB, MT4, 120 h
row,SMILES,EC50 [nM]
1,CCNC(=O)Cn1cc(CN2CCC(Nc3nccc(Oc4c(C)cc(/C=C/C#N)cc4C)n3)CC2)nn1,215
2,Cc1cc(/C=C/C#N)cc(C)c1Oc1nc(NC2CCN(Cc3cn(CC(=O)NC4CCOCC4)nn3)CC2)nc2c1COC2,385
3,CCNC(=O)Cn1cc(CN2CCC(Nc3nc(Oc4c(C)cc(/C=C/C#N)cc4C)c4ccccc4n3)CC2)nn1,241
4,Cc1cc(/C=C/C#N)cc(C)c1Oc1nc(NC2CCN(Cc3cn(CC(=O)NC4CC4)nn3)CC2)nc2ccccc12,232
5,CNC(=O)Cn1cc(CN2CCC(Nc3nc(Oc4c(C)cc(/C=C/C#N)cc4C)c4ccccc4n3)CC2)nn1,139
6,CNC(=O)Cn1cc(CN2CCC(Nc3nc4c(c(Oc5c(C)cc(/C=C/C#N)cc5C)n3)COC4)CC2)nn1,805
7,Cc1cc(/C=C/C#N)cc(C)c1Oc1nc(NC2CCN(Cc3cn(CC(N)=O)nn3)CC2)nc2c1COC2,2460
